Test results from publication PMC5785997, “2-Phenylquinazolinones as dual-activity tankyrase-kinase inhibitors” (Scientific Reports, 2018).

What was measured:
[1] = molecular target: T1, ARTD12/PARP12 (Homo sapiens, UniProt Q9H0J9); test: ARTD profiling, ARTD12
T1 sequence (Q9H0J9 484-698 limits assumed): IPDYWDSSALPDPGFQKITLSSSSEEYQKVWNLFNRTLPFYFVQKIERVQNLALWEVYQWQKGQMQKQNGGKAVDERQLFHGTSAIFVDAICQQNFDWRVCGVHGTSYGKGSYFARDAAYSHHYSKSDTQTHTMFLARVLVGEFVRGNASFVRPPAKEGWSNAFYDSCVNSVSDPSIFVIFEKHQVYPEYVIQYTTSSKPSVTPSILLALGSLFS

[2] = molecular target: p38α (Homo sapiens, UniProt Q16539); test: Kinase functional assay (mobility shift), p38α; type: biochemical; details: read-out: p38α (% Inhib.); for inhibition at 1 µM: 1 µM compound, Table S3; for inhibition at 10 µM: 10 µM compound, Table S4
[3] = molecular target: TNKS2 (Homo sapiens, UniProt Q9H2K2); test: NAD+ quantification activity assay, TNKS2; type: biochemical; details: TNKS2 IC50, NAD+ 500 nM
Description: The activity assay used to measure the potency of the compounds against TNKS2 is based on the quantification of NAD^+[38]. The reactions were carried out in 96-well plate (Greiner bio-one, U-shaped) and the conditions were the same as reported earlier (Table S5)[24].
The compounds were stored in 100% DMSO at −20 °C. All the compounds were diluted in the TNKS2 assay buffer (50 mM Bis-Tris Propane, 0.5 mM TCEP, 0.01% Triton-100x). Control reactions were used to exclude the effect of compound fluorescence and quenching from the calculations. […] The pIC50 values were calculated and fitted with nonlinear regression using 4-parameters with GraphPad Prism (version 5.0 for windows).
(§1) Protein (nM) NAD+ (nM) Incubation Buffer
(§2) Kinase [ATP] Substrate Incubation Reaction buffer

[4] = molecular target: T2, ARTD15/PARP16 (Homo sapiens, UniProt Q8N5Y8); test: ARTD profiling, ARTD15
T2 sequence (Q8N5Y8 1-322): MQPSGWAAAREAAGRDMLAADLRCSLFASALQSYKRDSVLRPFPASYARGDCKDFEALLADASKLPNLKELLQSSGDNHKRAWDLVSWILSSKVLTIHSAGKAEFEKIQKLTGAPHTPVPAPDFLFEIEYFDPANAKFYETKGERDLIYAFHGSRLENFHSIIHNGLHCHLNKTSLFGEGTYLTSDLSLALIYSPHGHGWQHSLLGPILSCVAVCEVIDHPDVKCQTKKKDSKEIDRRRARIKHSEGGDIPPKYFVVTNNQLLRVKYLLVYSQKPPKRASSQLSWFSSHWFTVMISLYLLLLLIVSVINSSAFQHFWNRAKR

[5] = molecular target: ARTD5/TNKS1 (Homo sapiens, UniProt O95271); test: NAD+ quantification activity assay, TNKS1; type: biochemical; details: NAD+ 500 nM
Description: as §1, §2

[6] = molecular target: ARTD8/PARP14 (Homo sapiens, UniProt Q460N5); test: ARTD profiling, ARTD8
[7] = molecular target: T3, human CK2α-1 (Homo sapiens, UniProt P68400); test: ADP-Glo kinase assay, CK2; type: biochemical; details: read-out: CK2 (% Inhib.); for inhibition at 1 µM: 1 µM compound, Table S3; for inhibition at 10 µM: 10 µM compound, Table S4
T3 construct: purchased Promega V4,482
Description: The kinase functional assays were performed using a combination of kinase and 1.5 μM peptide substrate in the presence of ATP. The reaction mixture was analyzed on the Caliper LabChip 3,000 (Caliper, Hopkinton, MA) by the electrophoretic mobility shift of the fluorescent substrate and phosphorylated product. For the inhibition of human CK2α-1, the experiments were carried out with ADP-Glo kinase Assay Kit (Promega V9,101). Assays are described in detail in the Supplementary Methods and Table S6. […]
Dose-response curves were generated to determine the concentration required to inhibit 50% of kinase activity (IC50). Staurosporine (Invitrogen BP2,451) was included as a positive control of each enzymatic assay. The profiling of the kinases was done at 1 and at 10 μM of the compound.
For the inhibition of human CK2α-1, the experiments were carried out in a white 384-microplate low flange (Corning 3,572) with ADP-Glo kinase Assay Kit (Promega V9101) and CK2α-1 Kinase Enzyme System (Promega V4,482). The test compounds and standard staurosporine (Invitrogen BP2451), 25 ng/well CK2α-1 kinase and 50 µM ATP were added in a final volume of 10 µl/well using reaction buffer supplied by kit as assay buffer. The reaction mixture was incubated in gentle shaking for 60 minutes at room temperature. After the incubation 10 µl of ADP-Glo reagent was added and incubated in gentle shaking for 40 minutes at room temperature. Finally 20 µl of Kinase Detection Reagent was added and the plate was incubated on a shaker for 30 minutes at room […]
temperature. […]

T3 sequence (P68400 whole entry): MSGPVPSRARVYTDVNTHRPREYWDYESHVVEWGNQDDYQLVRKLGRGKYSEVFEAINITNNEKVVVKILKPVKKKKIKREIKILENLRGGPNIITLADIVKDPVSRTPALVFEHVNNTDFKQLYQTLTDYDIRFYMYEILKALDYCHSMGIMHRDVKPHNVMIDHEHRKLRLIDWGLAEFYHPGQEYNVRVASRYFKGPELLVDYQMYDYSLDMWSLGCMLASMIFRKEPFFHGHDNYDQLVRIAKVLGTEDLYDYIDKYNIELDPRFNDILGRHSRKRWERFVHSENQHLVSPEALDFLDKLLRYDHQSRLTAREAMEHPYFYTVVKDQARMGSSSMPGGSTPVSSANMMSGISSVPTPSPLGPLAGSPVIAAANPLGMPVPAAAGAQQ
Chain of p38α (Q16539 whole entry): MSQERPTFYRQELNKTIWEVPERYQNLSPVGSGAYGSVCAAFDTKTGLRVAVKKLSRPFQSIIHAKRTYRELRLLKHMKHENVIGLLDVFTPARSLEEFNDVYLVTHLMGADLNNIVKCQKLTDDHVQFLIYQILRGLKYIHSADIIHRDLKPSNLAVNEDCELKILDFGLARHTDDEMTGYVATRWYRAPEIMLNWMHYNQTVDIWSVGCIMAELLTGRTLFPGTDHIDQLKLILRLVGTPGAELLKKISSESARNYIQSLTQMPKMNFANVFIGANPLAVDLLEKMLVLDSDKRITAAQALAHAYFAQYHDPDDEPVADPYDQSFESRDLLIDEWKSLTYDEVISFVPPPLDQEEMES
Chain of ARTD8/PARP14 (Q460N5 whole entry): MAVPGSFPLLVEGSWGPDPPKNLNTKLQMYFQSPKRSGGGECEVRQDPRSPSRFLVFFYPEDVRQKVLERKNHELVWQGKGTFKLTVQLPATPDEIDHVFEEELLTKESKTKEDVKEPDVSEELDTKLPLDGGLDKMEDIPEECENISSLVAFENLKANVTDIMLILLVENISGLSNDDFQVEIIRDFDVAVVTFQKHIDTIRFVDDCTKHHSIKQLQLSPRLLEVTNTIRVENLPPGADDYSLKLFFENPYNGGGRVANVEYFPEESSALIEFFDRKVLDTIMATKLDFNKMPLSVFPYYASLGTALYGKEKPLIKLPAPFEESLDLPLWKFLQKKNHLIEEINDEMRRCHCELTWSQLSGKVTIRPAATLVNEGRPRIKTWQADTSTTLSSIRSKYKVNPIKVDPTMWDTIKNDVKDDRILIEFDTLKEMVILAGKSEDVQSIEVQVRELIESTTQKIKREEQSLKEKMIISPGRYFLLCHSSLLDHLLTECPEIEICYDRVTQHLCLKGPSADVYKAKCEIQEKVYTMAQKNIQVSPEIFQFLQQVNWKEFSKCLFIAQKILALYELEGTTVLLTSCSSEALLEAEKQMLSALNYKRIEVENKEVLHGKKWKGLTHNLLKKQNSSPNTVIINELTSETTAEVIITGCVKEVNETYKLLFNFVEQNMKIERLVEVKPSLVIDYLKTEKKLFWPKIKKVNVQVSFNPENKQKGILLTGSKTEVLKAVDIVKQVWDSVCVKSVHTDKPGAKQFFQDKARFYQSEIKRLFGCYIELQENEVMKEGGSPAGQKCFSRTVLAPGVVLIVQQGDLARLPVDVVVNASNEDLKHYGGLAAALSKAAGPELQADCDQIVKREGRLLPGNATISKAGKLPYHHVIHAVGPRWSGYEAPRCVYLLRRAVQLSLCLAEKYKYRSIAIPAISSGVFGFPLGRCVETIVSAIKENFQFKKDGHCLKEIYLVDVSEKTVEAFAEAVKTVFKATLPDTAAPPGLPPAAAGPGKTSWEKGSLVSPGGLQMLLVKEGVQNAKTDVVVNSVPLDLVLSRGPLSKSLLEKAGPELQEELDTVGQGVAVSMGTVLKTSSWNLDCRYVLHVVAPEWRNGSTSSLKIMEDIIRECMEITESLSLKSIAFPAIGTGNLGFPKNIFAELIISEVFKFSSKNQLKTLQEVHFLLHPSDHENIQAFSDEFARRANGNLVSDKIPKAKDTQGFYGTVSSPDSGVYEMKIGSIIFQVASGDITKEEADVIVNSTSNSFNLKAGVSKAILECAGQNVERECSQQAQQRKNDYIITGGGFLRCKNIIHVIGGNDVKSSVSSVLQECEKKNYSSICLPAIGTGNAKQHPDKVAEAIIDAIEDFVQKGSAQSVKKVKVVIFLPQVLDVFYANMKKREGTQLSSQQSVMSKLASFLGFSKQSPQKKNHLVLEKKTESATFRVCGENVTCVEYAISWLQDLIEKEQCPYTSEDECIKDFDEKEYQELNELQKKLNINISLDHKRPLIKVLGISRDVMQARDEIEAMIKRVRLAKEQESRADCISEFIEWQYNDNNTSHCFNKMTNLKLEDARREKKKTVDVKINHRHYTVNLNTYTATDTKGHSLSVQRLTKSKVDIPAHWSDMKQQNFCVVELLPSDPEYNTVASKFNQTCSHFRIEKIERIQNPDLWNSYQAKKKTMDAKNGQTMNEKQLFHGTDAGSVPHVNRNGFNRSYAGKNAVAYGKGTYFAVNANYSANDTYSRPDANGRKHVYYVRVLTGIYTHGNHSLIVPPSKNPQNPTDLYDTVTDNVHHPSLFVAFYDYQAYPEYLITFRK
Chain of TNKS2 (Q9H2K2 959-1164): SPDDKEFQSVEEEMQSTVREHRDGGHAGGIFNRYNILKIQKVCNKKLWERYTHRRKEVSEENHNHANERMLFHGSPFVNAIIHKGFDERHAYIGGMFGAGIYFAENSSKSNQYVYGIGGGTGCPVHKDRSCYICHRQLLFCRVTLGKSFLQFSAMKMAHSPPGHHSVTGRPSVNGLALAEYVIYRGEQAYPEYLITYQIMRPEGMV
Chain of ARTD5/TNKS1 (O95271 1112-1317): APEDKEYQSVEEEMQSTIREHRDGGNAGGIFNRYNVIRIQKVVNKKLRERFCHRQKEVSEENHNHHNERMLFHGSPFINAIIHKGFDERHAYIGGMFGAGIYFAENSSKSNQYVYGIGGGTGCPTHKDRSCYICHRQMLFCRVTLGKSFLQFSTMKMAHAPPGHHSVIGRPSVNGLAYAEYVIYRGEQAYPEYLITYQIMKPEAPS

SMILES	IC50 [1] [nM]	inhibition at 1 µM [2] [%]	inhibition at 10 µM [2] [%]	IC50 [3] [nM]	IC50 [4] [nM]	IC50 [5] [nM]	IC50 [6] [nM]	inhibition at 1 µM [7] [%]	inhibition at 10 µM [7] [%]
O=c1[nH]c(-c2ccc(N3CCCCC3)cc2)nc2ccccc12 [Compound 30]	> 10000	3 ± 1	3 ± 3	15	> 10000	30	> 10000	1 ± 1	1 ± 1
CCN(CC)c1ccc(-c2nc3ccccc3c(=O)[nH]2)cc1 [Compound 32]	> 10000	1 ± 1	20 ± 2	10	> 10000	11	> 10000	2 ± 1	2 ± 1
